This note sets out measurements from patent publication US8404713B2, “Quinolinone derivatives as PARP inhibitors” (Janssen Pharmaceutica NV, priority 2007, dated 2013).

One assay concerns the target T1, Human PARP-1 enzyme (Homo sapiens, UniProt P09874).
T1 construct: purchased Trevigen
Kind of assay: In vitro scintillation proximity assay (SPA) for PARP-1 inhibitory activity. The note with it: nicked DNA activated PARP-1, [3H]-NAD+, biotinylated histones; tested between 10^-5 M and 3x10^-9 M; read-out: in vitro SPA assay PARP-1 pIC50 (converted). It counts as biochemical. On the procedure: C.1. In Vitro Scintillation Proximity Assay (SPA) for PARP-1 Inhibitory Activity
Compounds of the present invention were tested in an in vitro assay based on SPA technology (proprietary to GE healthcare).
In principle, the assay relies upon the well established SPA technology for the detection of poly(ADP-ribosyl)ation of biotinylated target proteins, i.e histones. This ribosylation is induced using nicked DNA activated PARP-1 enzyme and [^3H]-nicotinamide adenine dinucleotide ([^3H]-NAD^+) as ADP-ribosyl donor.
Histones (type II-A, supplier: Sigma) were biotinylated using the biotinylation kit of Amersham and stored aliquoted at −20° C. A stock solution of 100 mg/ml SPA poly(vinyl toluene) (PVT) beads (supplier: Amersham) was made in PBS. A stock solution of 61.6 nM [^3H]-NAD^+ was made by adding [^3H]-NAD^+ (0.1 mCi/ml, supplier: Perkin Elmer) to incubation buffer (50 mM Tris/HCl, pH 8; 0.2 mM DTT; 4 mM MgCl2). A solution of 4 mM NAD^+ (supplier: Sigma) was made. Human PARP-1 enzyme was obtained from Trevigen. Biotinylated histones and PVT-SPA beads were mixed and pre-incubated for 30 min. at room temperature. PARP-1 enzyme (concentration was lot dependent) was mixed with the nicked DNA and the mixture was pre-incubated for 30 min. at 4° C. Equal parts of this histones/PVT-SPA beads solution and PARP-1 enzyme/DNA solution were mixed and 75 μl of this mixture together with 1 μl of compound in DMSO and 25 μl of [^3H]-NAD^+ was added per well into a 96-well microtiterplate. The final concentrations in the incubation mixture were 2 μg/ml for the biotinylated histones, 2 mg/ml for the PVT-SPA beads, 0.25 μg/ml for the nicked DNA and between 0.1-0.2 μg/ml for the PARP-1 enzyme. After incubation of the mixture for 20 min. at room temperature, the reaction was terminated by adding 100 μl of 4 mM NAD^+ in water (final concentration 2 mM) and plates were mixed. The beads were sedimented by centrifugation (10 min, 800 rpm). and plates transferred to a TopCountNXT™ (Packard) for scintillation counting, values were expressed as counts per minute (cpm). For each experiment, controls (containing PARP-1 enzyme and DMSO without compound), a blank incubation (containing DMSO but no PARP-1 enzyme, no DNA or compound) and samples (containing PARP-1 enzyme, DNA and compound dissolved in DMSO) were run in parallel. All compounds tested were dissolved and eventually further diluted in DMSO. A dose-response curve was made wherein the compounds were tested at concentrations between 10^−5M and 3×10^−9M. In each test, the blank value was subtracted from both the control and the sample values. The control sample represented maximal PARP-1 enzyme activity. For each sample, the amount of cpm was expressed as a percentage of the mean cpm value of the controls. When appropriate, IC50-values (concentration of the drug, needed to reduce the PARP-1 enzyme activity to 50% of the control) were computed using linear interpolation between the experimental points just above and below the 50% level. Herein the effects of test compounds are expressed as pIC50 (the negative log value of the IC50-value). As a reference compound, 4-amino-1,8-naphthalimide was included to validate the SPA assay.
In general terms: In a scintillation proximity assay essentially only radioactivity close to the scintillant gives light.

Another assay concerns the target T2, TANK-2 enzyme (Homo sapiens, UniProt Q9H2K2).
T2 construct: made in house
T2 sequence (Q9H2K2 1-1166): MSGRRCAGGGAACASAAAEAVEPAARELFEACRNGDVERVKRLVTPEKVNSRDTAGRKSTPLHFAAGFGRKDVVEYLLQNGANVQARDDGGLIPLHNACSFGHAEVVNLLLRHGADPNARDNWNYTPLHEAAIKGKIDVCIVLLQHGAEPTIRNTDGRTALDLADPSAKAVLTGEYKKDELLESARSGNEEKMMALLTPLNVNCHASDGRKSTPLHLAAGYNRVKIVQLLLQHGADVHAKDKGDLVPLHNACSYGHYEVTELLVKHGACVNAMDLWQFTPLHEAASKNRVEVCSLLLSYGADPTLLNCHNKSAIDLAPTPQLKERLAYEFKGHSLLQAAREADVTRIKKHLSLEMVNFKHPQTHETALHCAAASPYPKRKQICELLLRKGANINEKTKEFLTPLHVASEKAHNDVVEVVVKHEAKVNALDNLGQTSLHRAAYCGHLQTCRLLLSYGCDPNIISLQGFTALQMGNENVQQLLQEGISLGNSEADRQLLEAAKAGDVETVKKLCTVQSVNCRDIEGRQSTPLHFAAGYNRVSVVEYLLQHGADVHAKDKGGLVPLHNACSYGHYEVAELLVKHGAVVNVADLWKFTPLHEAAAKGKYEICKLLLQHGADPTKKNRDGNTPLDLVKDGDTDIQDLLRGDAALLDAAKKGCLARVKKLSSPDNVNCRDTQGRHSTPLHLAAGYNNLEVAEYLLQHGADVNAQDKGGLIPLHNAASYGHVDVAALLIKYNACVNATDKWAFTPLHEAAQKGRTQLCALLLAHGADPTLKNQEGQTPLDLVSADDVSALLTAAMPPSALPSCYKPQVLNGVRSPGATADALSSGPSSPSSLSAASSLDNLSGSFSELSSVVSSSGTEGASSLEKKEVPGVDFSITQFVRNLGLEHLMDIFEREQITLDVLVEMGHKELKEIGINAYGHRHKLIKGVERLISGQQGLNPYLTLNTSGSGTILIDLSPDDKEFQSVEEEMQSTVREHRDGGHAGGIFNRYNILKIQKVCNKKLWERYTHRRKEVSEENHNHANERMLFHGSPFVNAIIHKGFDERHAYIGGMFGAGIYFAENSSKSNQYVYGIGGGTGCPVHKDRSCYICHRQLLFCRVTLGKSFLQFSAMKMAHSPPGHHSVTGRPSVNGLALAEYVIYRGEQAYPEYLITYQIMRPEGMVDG
Kind of assay: In vitro scintillation proximity assay (SPA) for TANK-2 inhibitory activity. The format is biochemical. The following applies: auto-poly(ADP-ribosyl)ation, Ni flash plates; 96-well results if available, otherwise 384-well; tested between 10^-5 M and 3x10^-8 M; read-out: in vitro SPA assay TANK-2 pIC50 (converted). As for the experimental part: C.2. In Vitro Scintillation Proximity Assay (SPA) for TANK-2 Inhibitory Activity
Compounds of the present invention were tested in an in vitro assay based on SPA technology with Ni Flash plates (96 or 384 well).
In principle, the assay relies upon SPA technology for the detection of auto-poly(ADP-ribosyl)ation of TANK-2 protein using [^3H]-nicotinamide adenine dinucleotide ([^3H]-NAD^+) as ADP-ribosyl donor.
A stock solution of 100 nM [^3H]-NAD^+/NAD (0.1 mCi/ml, supplier: Perkin Elmer) and 0.25 mM NAD (Sigma) was made in assay buffer (60 mM Tris/HCl, pH 7.4; 0.9 mM DTT; 6 mM MgCl2). The TANK-2 enzyme was produced as described in EP1238063. 60 μl of assay buffer, together with 1 μl of compound in DMSO, 20 μl of [^3H]-NAD^+/NAD and 20 μl of TANK-2 enzyme (final concentration 8 μg/ml) was added per well into a 96-well Ni-coated flash plate (Perkin Elmer). After incubation of the mixture for 120 min. at room temperature, the reaction was terminated by adding 60 μl of stopsolution (42.6 mg NAD in 6 ml H2O). The plates were covered with a plate sealer and placed in a TopCountNX™ (Packard) for scintillation counting. Values were expressed as counts per minute (cpm). For each experiment, controls (containing TANK-2 enzyme and DMSO without compound), a blank incubation (containing DMSO but no TANK-2 enzyme or compound) and samples (containing TANK-2 enzyme and compound dissolved in DMSO) were run in parallel. All compounds tested were dissolved and eventually further diluted in DMSO. […] In each test, the blank value was subtracted from both the control and the sample values. The control sample represented maximal TANK-2 enzyme activity. For each sample, the amount of cpm was expressed as a percentage of the mean cpm value of the controls. When appropriate, IC50-values (concentration of the drug, needed to reduce the TANK-2 enzyme activity to 50% of the control) were computed using linear interpolation between the experimental points just above and below the 50% level. Herein the effects of test compounds are expressed as pIC50 (the negative log value of the IC50-value). As reference compounds, 3-aminobenzamide and 4-amino-1,8-naphtalimide were included to validate the SPA assay. Herein the assay was described using 96-well plates. In the assay using 384-well plates the same final concentrations were used and volumes were adapted.

T1 sequence (P09874 whole entry): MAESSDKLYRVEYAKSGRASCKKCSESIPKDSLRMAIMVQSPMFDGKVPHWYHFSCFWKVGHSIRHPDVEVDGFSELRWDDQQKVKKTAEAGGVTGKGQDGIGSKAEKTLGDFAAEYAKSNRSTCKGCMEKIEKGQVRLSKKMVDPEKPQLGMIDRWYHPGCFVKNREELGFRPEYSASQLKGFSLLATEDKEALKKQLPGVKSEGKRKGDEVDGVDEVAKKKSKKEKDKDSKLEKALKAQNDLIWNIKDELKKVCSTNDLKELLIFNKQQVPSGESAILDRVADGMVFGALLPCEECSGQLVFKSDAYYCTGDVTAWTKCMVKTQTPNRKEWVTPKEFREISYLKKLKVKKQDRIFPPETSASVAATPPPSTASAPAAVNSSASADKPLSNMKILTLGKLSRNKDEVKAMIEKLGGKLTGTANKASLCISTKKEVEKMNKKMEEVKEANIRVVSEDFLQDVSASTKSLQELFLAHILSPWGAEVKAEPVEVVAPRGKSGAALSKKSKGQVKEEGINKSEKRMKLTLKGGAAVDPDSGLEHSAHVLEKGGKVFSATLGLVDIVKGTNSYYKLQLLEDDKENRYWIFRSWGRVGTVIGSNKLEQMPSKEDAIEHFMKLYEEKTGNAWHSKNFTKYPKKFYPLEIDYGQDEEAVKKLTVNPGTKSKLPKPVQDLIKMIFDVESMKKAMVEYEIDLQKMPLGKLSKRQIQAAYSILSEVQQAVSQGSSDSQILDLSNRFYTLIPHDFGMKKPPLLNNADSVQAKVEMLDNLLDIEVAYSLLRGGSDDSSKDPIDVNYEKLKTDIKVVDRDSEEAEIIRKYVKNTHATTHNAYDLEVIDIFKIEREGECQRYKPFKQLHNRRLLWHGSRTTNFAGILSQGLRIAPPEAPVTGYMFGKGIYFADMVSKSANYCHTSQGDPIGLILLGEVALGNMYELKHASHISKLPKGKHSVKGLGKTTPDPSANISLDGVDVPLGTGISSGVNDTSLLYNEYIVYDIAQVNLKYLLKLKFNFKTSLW

For the compound `CCc1cc2ccc(C(CO)N3CCOCC3)cc2[nH]c1=O` (centres unmarked) [Compound 5], the results for the IC50 on Human PARP-1 enzyme and on TANK-2 enzyme were 82.8 nM and 1440 nM, respectively.
On the same counts, the results for `CCc1cc2ccc(CN3CCN(c4ccc(OC)cc4)CC3)cc2[nH]c1=O` [Compound 42] are 0.893 nM and 1300 nM.
As for `CCc1cc2ccc(CN3Cc4ccccc4C3)cc2[nH]c1=O` [Compound 63], the IC50 at Human PARP-1 enzyme was 39.2 nM; on TANK-2 enzyme, 455 nM.
On the same counts, the results for `CCc1cc2ccc(CN3CCN(c4ccncc4)CC3)cc2[nH]c1=O` [Compound 35] are 1.14 nM and 398 nM.
For `CCc1cc2ccc(CN3CCC(Cc4ccccc4)CC3)cc2[nH]c1=O` [Compound 31] the same measures were 403 nM and 3120 nM.
Take `Cc1cc2ccc(CN3CCN(c4ncccn4)CC3)cc2[nH]c1=O` [Compound 26]: the results for the IC50 on Human PARP-1 enzyme and on TANK-2 enzyme were 237 nM and 1980 nM, respectively.
On the same counts, the results for `CCc1cc2ccc(CNCc3ccncc3)cc2[nH]c1=O` [Compound 47] are 124 nM and 144 nM.
On the same counts, the results for `CCc1cc2ccc(CN3CCN(c4cnccn4)CC3)cc2[nH]c1=O` [Compound 36] are 2.55 nM and 222 nM.
For `Cc1cc2ccc(C(C3CCCCC3)N3CCN(c4ccccn4)CC3)cc2[nH]c1=O` (centres unmarked) [Compound 75] the same measures were 309 nM and above 10000 nM.
Turning to `CCc1cc2ccc(CN3C[C@@H]4C[C@H]3CN4c3ccc(Cl)cc3)cc2[nH]c1=O` [Compound 28], the IC50 on Human PARP-1 enzyme was 34.8 nM; on TANK-2 enzyme, 650 nM.
For `CCc1cc2ccc(CN3CCN(c4cccc(Cl)c4)CC3)cc2[nH]c1=O` [Compound 45] the same measures were 16.3 nM and 1710 nM.
For `CCc1cc2ccc(C(O)CN3CCC(Cc4ccccc4)CC3)cc2[nH]c1=O` (centres unmarked) [Compound 34] the same measures were 94.6 nM and 391 nM.
For `CCc1cc2ccc(CNCc3ccccc3)cc2[nH]c1=O` [Compound 49] the same measures were 42.9 nM and 155 nM.
For the compound `CCc1cc2ccc(CN3CCN(c4ccc(C#N)cn4)CC3)cc2[nH]c1=O` [Compound 17], the IC50 was 0.865 nM on Human PARP-1 enzyme and 76.6 nM at TANK-2 enzyme.
On the same counts, the results for `CCc1cc2ccc(CNCc3ccc(F)cc3)cc2[nH]c1=O` [Compound 48] are 24.4 nM and 254 nM.
On the same counts, the results for `Cc1cc2ccc(C(C)N3CCC(c4ccccc4)CC3)cc2[nH]c1=O` (centres unmarked) [Compound 74] are 6.46 nM and 1860 nM.
As for `CCc1cc2c(OC)cc(CN3CCN(c4ccc(C#N)cn4)CC3)cc2[nH]c1=O` [Compound 69], the IC50 on TANK-2 enzyme was 57.5 nM.
Take `CCc1cc2ccc(CN3CCN(c4n[nH]c5ccccc45)CC3)cc2[nH]c1=O` [Compound 37]: the results for the IC50 on Human PARP-1 enzyme and at TANK-2 enzyme were 5.68 nM and 232 nM, respectively.
For `COCCNC1CCN(C(C)c2ccc3cc(C)c(=O)[nH]c3c2)CC1` (centres unmarked) [Compound 55] the same measures were 92 nM and above 10000 nM.
Consider `CCc1cc2ccc(CN3CCN(c4ncccn4)CC3)cc2[nH]c1=O` [Compound 30], for which the results for the IC50 at Human PARP-1 enzyme and on TANK-2 enzyme were 14.3 nM and 188 nM, respectively.
On the same counts, the results for `Cc1cc2ccc(C(C)N3CCN(c4ccc(F)cc4F)CC3)cc2[nH]c1=O` (centres unmarked) [Compound 52] are 1.42 nM and 2420 nM.
On the same counts, the results for `CCc1cc2ccc(CNCCN3CCN(c4ncccn4)CC3)cc2[nH]c1=O` [Compound 24] are 80.4 nM and 1000 nM.
On the same counts, the results for `Cc1cc2ccc(C(C)N3CCN(c4ncccc4C(F)(F)F)CC3)cc2[nH]c1=O` (centres unmarked) [Compound 56] are 225 nM and 1920 nM.
For `Cc1cc2ccc(C(C)N3CCN(C4CCCCC4)CC3)cc2[nH]c1=O` (centres unmarked) [Compound 54], the values for the IC50 on Human PARP-1 enzyme and at TANK-2 enzyme were 61.4 nM and above 10000 nM, respectively.
For `Cc1cc2ccc(CN3CCN(c4ccccn4)CC3)cc2[nH]c1=O` [Compound 57] the same measures were 1.48 nM and 4220 nM.
On the same counts, the results for `CCc1cc2ccc(CNCCCc3ccccc3)cc2[nH]c1=O` [Compound 46] are 9.48 nM and 5380 nM.
For `Cc1cc2ccc(C(C)N3CCCCC3)cc2[nH]c1=O` (centres unmarked) [Compound 53] the same measures were 49.8 nM and above 10000 nM.
